Publication PMC6013267 (Medicinal chemistry research : an international journal for …, 2018)

Key:
[1] = system: Aβ plaques; assay: [3H]PIB competition autoradiography in postmortem human AD frontal cortex slices; format: binding; conditions: for displacement of [3H]PIB (words, discussion): concentration not restated
[2] = target: α4β2* nAChRs (Rattus norvegicus, UniProt P09483+P12390); conditions: 100 nM drug; rat brain slices
[3] = system: amyloid β; conditions: ref Salloway et al. 2014, Doody et al. 2014, Siemers et al. 2016, cited from earlier work
[4] = 10 μM drug, control GM/WM approx. 3

α4β2* nAChRs, sequence (P09483 31-630): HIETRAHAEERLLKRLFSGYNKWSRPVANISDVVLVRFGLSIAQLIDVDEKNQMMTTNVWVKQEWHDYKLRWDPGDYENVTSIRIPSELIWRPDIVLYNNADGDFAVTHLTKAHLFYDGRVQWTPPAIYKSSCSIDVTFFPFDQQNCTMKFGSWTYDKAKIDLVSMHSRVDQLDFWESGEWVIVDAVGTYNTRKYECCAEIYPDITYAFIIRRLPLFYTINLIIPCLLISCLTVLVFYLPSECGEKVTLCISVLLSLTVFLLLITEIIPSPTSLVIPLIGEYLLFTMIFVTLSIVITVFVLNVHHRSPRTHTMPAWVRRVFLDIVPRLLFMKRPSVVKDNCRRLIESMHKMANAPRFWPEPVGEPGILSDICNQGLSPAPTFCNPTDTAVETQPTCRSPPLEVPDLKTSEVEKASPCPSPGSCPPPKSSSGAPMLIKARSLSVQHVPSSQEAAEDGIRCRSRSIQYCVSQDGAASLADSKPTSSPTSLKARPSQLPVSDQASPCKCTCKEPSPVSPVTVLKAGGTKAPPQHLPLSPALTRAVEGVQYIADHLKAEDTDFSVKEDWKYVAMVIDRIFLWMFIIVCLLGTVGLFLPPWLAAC
α4β2* nAChRs, sequence (P12390 25-500): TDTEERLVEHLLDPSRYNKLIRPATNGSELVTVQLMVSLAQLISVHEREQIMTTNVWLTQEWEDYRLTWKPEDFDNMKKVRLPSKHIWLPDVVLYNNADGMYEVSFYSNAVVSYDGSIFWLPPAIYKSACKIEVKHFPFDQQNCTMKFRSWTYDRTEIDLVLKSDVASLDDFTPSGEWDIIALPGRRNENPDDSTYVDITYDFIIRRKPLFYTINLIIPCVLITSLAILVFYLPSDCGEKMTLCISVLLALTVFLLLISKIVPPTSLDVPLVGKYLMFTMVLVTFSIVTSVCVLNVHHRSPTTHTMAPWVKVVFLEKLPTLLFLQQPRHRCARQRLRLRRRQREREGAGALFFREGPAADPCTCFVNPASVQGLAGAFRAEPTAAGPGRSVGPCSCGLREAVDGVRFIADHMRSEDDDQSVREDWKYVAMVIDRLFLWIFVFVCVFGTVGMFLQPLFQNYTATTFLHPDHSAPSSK

Molecule	effect on [3H]PIB binding ([1]; 1 μM drug)	GM/WM ratio of [3H]PIB binding [1, 4]	displacement of [3H]PIB (words, discussion) [1]	other results
5-(3-methoxy-4-propyloxycinnamate)-3-(2-(S)-pyrrolidinylmethoxy)pyridine [GKS-007]	some inhibitory effect			GM/WM ratio of [3H]PIB binding ([1]; 1 μM drug, control GM/WM ~2): no significant GM/WM ratio reduction; displacement of [3H]cytisine [2]: Displacement of significant amounts
5-(3′-Ethyl 3-methoxy-4-propyloxycinnamate)-3-(2-(S)-pyrrolidinylmethoxy)pyridine [GKS-006]				displacement of [3H]cytisine [2]: Displacement of significant amounts
solanezumab: Anti-amyloid β monoclonal antibody				clinical outcome ([3]; mild to moderate AD): Did not improve clinical outcomes. Trials continue in early stage of disease; Aβ plaque load (measured by PET imaging) before and after antibody treatment [3]: did not change significantly
COc1cc(/C=C/C(=O)O)ccc1O [FA, ferulic acid]	did not significantly affect the binding of [^3H]PIB	2	little displacement	GM/WM ratio of [3H]PIB binding ([1]; 1 μM drug, control GM/WM ~2): ~ 2; [3H]PIB levels in GM and WM ([1]; 10 μM drug): higher levels of [^3H]PIB
COc1cc(/C=C/C(=O)CC(=O)/C=C/c2ccc(O)c(OC)c2)ccc1O [CUR, curcumin]		1.5	significant displacement effect	reduction in GM/WM [3H]PIB binding ([1]; 10 μM drug): 50%
FEX-(3-methoxy-4-(1′-aminobutyryloxy)cinnamic acid [KD-003]		2.4		[3H]PIB levels in GM and WM ([1]; 10 μM drug): higher levels of [^3H]PIB
CNc1ccc(N=Nc2ccc(N(C)C)cc2)cc1 [TAZA, 4-methylamino-4'-N,N-dimethylaminoazobenzene]	significant displacement of [^3H]PIB		greater than observed by CUR	
